From patent US9096591B2, “Tetracyclic compounds” (Medivation Technologies, Inc., priority 2007, dated 2015)
Read-outs that look alike come from different tables or passages of the source.

Tests used:
[1] = biological target: T1, human recombinant histamine H1 receptor (Homo sapiens, UniProt P35367); experiment: Histamine H1 radioligand binding ([3H]Pyrilamine)
T1 construct: expressed in transfected cells; host or cells: CHO cells
Outline: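 Receptor expressed in CHO cells, assayed in 50 mM Tris-HCl pH 7.4 with 2 mM MgCl2, 100 mM NaCl, 250 mM sucrose. Compounds tested at 1 μM in 1% DMSO; non-specific binding set with 1 μM pyrilamine. Filter-bound radioactivity counted; values are percent inhibition of specific binding.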

[2] = biological target: T2, Serotonin (5-Hydroxytryptamine) 5-HT7 (Homo sapiens, UniProt P34969); experiment: Serotonin 5-HT7 radioligand binding ([3H]LSD); parameters: Inhibition of ligand binding, Ser. 5-HT7: concentration or dose not given beside the values; conditions: percent inhibition of specific binding
T2 construct: expressed in transfected cells; host or cells: CHO cells
T2 sequence (P34969 whole entry): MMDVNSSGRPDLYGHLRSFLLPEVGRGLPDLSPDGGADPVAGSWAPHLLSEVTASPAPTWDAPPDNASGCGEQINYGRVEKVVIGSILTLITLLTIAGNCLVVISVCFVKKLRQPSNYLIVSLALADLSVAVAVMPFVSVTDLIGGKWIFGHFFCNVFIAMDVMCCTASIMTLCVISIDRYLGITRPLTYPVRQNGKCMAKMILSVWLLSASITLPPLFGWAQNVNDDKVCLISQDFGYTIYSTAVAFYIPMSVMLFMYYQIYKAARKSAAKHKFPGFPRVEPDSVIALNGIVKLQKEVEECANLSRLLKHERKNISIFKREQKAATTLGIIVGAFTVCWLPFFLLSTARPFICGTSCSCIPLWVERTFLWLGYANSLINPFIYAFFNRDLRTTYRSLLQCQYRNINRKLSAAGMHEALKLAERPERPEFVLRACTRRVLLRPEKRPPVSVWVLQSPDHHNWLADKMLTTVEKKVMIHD
Experimental: Lysergic acid diethylamide (LSD) for 2 hours at 25° C. […] Receptor proteins were filtered and washed, the filters were then counted to determine [^3H]LSD specifically bound. […] Biochemical assay results are presented as the percent inhibition of specific binding in Table 6.

[3] = biological target: T3, human recombinant adrenergic α2B receptor (Homo sapiens, UniProt P18089); experiment: Adrenergic α2B radioligand binding ([3H]Rauwolscine); parameters: Inhibition of ligand binding, Adren. alpha2B: concentration or dose not given beside the values; conditions: percent inhibition of specific binding
T3 construct: expressed in transfected cells; host or cells: CHO-K1 cells
T3 sequence (P18089 1-450): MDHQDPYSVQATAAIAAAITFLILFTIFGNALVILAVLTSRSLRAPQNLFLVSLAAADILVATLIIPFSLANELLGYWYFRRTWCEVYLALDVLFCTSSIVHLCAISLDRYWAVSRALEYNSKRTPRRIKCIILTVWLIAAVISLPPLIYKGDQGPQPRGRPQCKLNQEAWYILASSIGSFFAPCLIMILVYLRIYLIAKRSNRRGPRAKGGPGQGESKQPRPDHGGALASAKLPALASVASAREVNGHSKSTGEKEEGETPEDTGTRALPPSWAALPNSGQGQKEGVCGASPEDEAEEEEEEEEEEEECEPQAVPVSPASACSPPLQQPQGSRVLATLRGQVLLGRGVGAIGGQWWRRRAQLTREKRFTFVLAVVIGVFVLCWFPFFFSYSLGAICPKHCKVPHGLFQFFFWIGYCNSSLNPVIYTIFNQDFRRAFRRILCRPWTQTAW
Outline: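 Membranes from CHO-K1 cells expressing the receptor, in 50 mM Tris-HCl pH 7.4 with 12.5 mM MgCl2, 1 mM EDTA, 0.2% BSA, incubated with compounds and 2.5 nM [3H]Rauwolscine for 60 minutes at 25 °C.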

[4] = biological target: T4, human recombinant histamine H2 receptor (Homo sapiens, UniProt P25021); experiment: Histamine H2 radioligand binding ([125I]Aminopotentidine)
T4 construct: expressed in transfected cells; host or cells: CHO-K1 cells
T4 sequence (P25021 whole entry): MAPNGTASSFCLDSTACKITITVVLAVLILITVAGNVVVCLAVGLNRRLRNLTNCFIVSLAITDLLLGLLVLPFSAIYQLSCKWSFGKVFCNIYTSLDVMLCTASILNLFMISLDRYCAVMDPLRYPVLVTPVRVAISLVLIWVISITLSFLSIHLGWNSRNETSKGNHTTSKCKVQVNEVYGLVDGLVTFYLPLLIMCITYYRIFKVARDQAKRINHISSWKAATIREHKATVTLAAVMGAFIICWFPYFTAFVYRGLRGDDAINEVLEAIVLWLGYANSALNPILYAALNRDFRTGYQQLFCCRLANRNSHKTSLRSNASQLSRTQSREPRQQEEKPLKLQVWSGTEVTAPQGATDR
Outline: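 Test compounds were assessed for their ability to displace radioligand from the human recombinant histamine H2 receptor. Non-specific binding was determined in the presence of 3 μM Tiotidine, and results were expressed as percent inhibition of specific binding, with 1% DMSO serving as the vehicle.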

[5] = biological target: T5, human recombinant adrenergic α1D receptor (Homo sapiens, UniProt P25100); experiment: Adrenergic α1D radioligand binding ([3H]Prozosin); parameters: Inhibition of ligand binding, Adren. alpha1D: concentration or dose not given beside the values; conditions: percent inhibition of specific binding
T5 construct: expressed in transfected cells; host or cells: HEK-293 cells
T5 sequence (P25100 1-572): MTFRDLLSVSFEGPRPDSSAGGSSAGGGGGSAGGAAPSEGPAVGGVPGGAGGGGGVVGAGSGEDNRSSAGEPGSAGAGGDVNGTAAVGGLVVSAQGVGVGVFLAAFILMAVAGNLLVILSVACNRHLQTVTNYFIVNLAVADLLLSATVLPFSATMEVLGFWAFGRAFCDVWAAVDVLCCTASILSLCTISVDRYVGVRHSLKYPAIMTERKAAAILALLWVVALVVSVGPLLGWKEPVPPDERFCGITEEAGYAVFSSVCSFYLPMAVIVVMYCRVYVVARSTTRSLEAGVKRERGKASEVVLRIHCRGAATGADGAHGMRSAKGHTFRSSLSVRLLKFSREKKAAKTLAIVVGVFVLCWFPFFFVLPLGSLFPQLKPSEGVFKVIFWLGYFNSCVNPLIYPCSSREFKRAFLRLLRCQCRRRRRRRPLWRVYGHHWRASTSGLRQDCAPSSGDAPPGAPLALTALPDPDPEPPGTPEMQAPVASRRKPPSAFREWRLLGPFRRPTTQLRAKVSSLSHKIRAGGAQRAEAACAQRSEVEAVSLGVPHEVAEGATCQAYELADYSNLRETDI
Experimental: Compounds of invention were incubated with 0.6 nM [^3H]Prozosin for 60 minutes at 25° C. Non-specific binding was estimated in the presence of 10 μM phentolamine. Receptor proteins were filtered and washed, the filters were then counted to determine [^3H]Prozosin specifically bound. […] Biochemical assay results are presented as the percent inhibition of specific binding in Table 6.

[6] = percent inhibition of specific binding, screened at 1 μM, read-out: Inhibition of ligand binding, Hist. H1
[7] = percent inhibition of specific binding, screened at 1 μM, read-out: Inhibition of ligand binding, Hist. H2

T1 sequence (P35367 whole entry): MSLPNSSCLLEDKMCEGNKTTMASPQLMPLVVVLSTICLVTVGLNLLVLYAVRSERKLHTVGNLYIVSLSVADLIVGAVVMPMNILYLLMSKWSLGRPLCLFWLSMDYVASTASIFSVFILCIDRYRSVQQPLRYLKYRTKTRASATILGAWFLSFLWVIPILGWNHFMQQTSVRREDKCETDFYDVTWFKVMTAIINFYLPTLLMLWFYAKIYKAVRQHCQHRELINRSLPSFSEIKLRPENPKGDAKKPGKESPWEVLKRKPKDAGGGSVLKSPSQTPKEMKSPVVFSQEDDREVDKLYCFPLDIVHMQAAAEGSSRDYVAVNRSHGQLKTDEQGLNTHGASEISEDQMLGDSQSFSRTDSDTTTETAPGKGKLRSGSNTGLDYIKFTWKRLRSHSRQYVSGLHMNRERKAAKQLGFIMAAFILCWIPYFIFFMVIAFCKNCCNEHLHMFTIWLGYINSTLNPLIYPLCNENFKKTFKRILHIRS

Structure (SMILES)	inhibition at 1 µM [1, 6] [%]	Inhibition of ligand binding, Ser. 5-HT7 [2] [%]	Inhibition of ligand binding, Adren. alpha2B [3] [%]	inhibition at 1 µM [4, 7] [%]	Inhibition of ligand binding, Adren. alpha1D [5] [%]	inhibition at 1 µM ([1]; read-out: Histamine Binding H1, percent inhibition of specific binding) [%]	inhibition at 1 µM ([1]; read-out: Inhibition of ligand binding, Hist. H1) [%]	inhibition at 1 µM ([4]; read-out: Histamine Binding H2, percent inhibition of specific binding) [%]	inhibition at 1 µM ([4]; read-out: Inhibition of ligand binding, Hist. H2) [%]
CN1CCc2c(c3ccc(Cl)cc3n2CCC2CCCCC2)C1 [Compound 188, 7-chloro-5-(2-cyclohexylethyl)-2,3,4,5-tetrahydro-2-methyl-1H-pyrido[4,3-b]indole]	97	41	65	72	8	–	–	–	–
CN1CCc2c(c3cc(Cl)ccc3n2CCc2ccc(Cl)cc2)C1 [Compound 45, 5-(4-chlorophenethyl)-8-chloro-2,3,4,5-tetrahydro-2-methyl-1H-pyrido[4,3-b]indole]	103	99	102	98	92	–	–	–	–
Cc1ccc2c(c1)c1c(n2CCc2ccc(C)nc2)CC(=O)N(C)C1 [Compound 195, 1,2-dihydro-2,8-dimethyl-5-(2-(6-methylpyridin-3-yl)ethyl)-4H-pyrido[4,3-b]indol-3(5H)-one]	3	2	7	22	15	–	–	–	–
CN1CCc2c(c3cc(Cl)ccc3n2CCc2ccncc2)C1 [Compound 56]	100	91	119	76	91	–	–	–	–
CN1CCc2c(c3ccc(Cl)cc3n2CCc2ccccc2)C1 [Compound 82]	99	100	99	99	64	–	–	–	–
Cc1ccc2c(c1)c1c(n2CCC(=O)N2CCC(NC(=O)OC(C)(C)C)CC2)CCN(C)C1 [Compound 393, tert-butyl 1-(3-(1,2,3,4-tetrahydro-2,8-dimethylpyrido[4,3-b]indol-5-yl)propanoyl)piperidin-4-ylcarbamate]	28	8	28	3	16	–	–	–	–
Cc1ccc(CCn2c3c(c4cc(C(F)(F)F)ccc42)CN(C)CC3)cn1 [Compound 53]	43	49	34	4	13	–	–	–	–
Cc1ccc2c(c1)c1c(n2CCc2ccc(C(C)C)nc2)CCN(C)C1 [Compound 360, 5-[2-(6-Isopropyl-pyridin-3-yl)-ethyl]-2,8-dimethyl-2,3,4,5-tetrahydro-1H-pyrido[4,3-b]indole]	101	91	115	75	96	–	–	–	–
CN1CCc2c(c3cc(Cl)ccc3n2CCC2CCCCC2)C1 [Compound 164, 8-chloro-5-(2-cyclohexylethyl)-2,3,4,5-tetrahydro-2-methyl-1H-pyrido[4,3-b]indole]	101	92	93	84	32	–	–	–	–
Cc1ccc2c(c1)c1c(n2CCN2CCCCC2)CCN(C)C1 [Compound 224, 2,3,4,5-tetrahydro-2,8-dimethyl-5-(2-(piperidin-1-yl)ethyl)-1H-pyrido[4,3-b]indole]	56	61	46	79	22	–	–	–	–
Cc1ccc2c(c1)c1c(n2CCc2ccc(C)nc2)CCN(C2CC2)C1 [Compound 51]	94	17	10	17	22	–	–	–	–
CN1CCc2c(c3cc(Cl)ccc3n2CCc2ccc(F)cc2)C1 [Compound 162, 5-(4-fluorophenethyl)-8-chloro-2,3,4,5-tetrahydro-2-methyl-1H-pyrido[4,3-b]indole]	100	94	112	94	90	–	–	–	–
Cc1ccc(CCn2c3c(c4cc(Cl)ccc42)CN(C)CC3)cc1 [Compound 43]	110	92	108	100	98	–	–	–	–
CC(Cn1c2c(c3ccccc31)CN(C)CC2)c1ccc(F)cc1 (centres unmarked) [Compound 455]	80	98	120	91	81	–	–	–	–
Cc1ccc2c(c1)c1c(n2CCc2ccc(C)nc2)CCN(C)C1=O [Compound 216]	–	18	3	–	−7	6	6	11	11
CN1CCc2c(c3cc(Cl)ccc3n2CCn2cccc2)C1 [Compound 349, 8-Chloro-2-methyl-5-(2-pyrrol-1-yl-ethyl)-2,3,4,5-tetrahydro-1H-pyrido[4,3-b]indole]	111	100	111	94	100	–	–	–	–
Cc1ccc2c(c1)c1c(n2CCc2ccccc2)CCN(C(=O)OCC(Cl)(Cl)Cl)C1 [Compound 227, 2,2,2-trichloroethyl 3,4-dihydro-8-methyl-5-phenethyl-1H-pyrido[4,3-b]indole-2(5H)-carboxylate]	-5	−8	0	1	11	–	–	–	–
CC(C)c1ccc(CCn2c3c(c4cc(Cl)ccc42)CN(C)CC3)cn1 [Compound 372, 8-Chloro-5-[2-(6-isopropyl-pyridin-3-yl)-ethyl]-2-methyl-2,3,4,5-tetrahydro-1H-pyrido[4,3-b]indole]	101	94	110	82	94	–	–	–	–
